In patent US9234006B2, “Compounds” (Novacta Biosystems Limited, priority 2011, dated 2016):
Where a name gives a salt, the structure may show the parent alone. Where a SMILES comes first, the peptide text is derived from it. Bridges are numbered along the chain shown (N, C = ends). [ ]: non-standard residue; d: D form. The star is where a group is joined. ξ: configuration not given here. ξHexahydromandeloyl = O=C(C(O)C1CCCCC1)*; Thr(3ξ) = CC(O)[C@H](N)C(=O)O; Propanoyl(3-OH) = O=C(CCO)*; X5 = CC(C)[C@H](N)CCC(=O)*; Octanoyl = CCCCCCCC(=O)*; Dab = NCC[C@H](N)C(=O)O; X4 = CN(C)CCCC(=O)*; X6 = O=C(CCCCCCCO)*; Ahx = NCCCCCC(=O)O; X3 = O=C(C1CCNC1)*

Assays:
Test in all cases: MIC susceptibility testing, broth microdilution in CaMHB
[1] = system: E. coli NCTC12900; format: cell-based, Escherichia coli
Procedure: (§1) To evaluate the potency and spectrum of the compounds, susceptibility testing was performed against four strains of each of the four Gram negative pathogens, Escherichia coli, Pseudomonas aeruginosa, Klebsiella pneumoniae and Acinetobacter baumannii.
(§2) The day before testing, 3 to 4 colonies were picked from fresh Mueller-Hinton Agar (MHA) plate and transferred into 10 mL of Cation adjusted MHB (CaMHB). Cultures were incubated at 37° C. 250 rpm for 18-20 hours before being diluted 100-fold in fresh CaMHB. The subcultures were grown further until the OD600 reached 0.2-0.3 corresponding to […]. The actively growing cultures were diluted 100-fold in fresh medium and used for the inoculum.
(§3) The assays were performed in duplicate.
(§4) Data was obtained under similar conditions to Table 4 except that different batches of cation-adjusted Muller-Hinton broth were used. The MIC values for these compounds are compared with those values obtained for Polymyxin B, Colistin Sulphate, CB-182,804 and NAB739 (as the TFA salt). CB-182,804 is a polymyxin decapeptide derivative with an aryl urea substituent at the N-terminus, which has been claimed to have lower toxicity than Polymyxin B (compound 5 in WO 2010/075416. See page 37). NAB739 has been described previously by Vaara et al.

[2] = system: E. coli ATCC25922; format: cell-based, Escherichia coli
Procedure: as §1, §2, §3, §4

[3] = system: E. coli NCTC9001; format: cell-based, Escherichia coli
Procedure: as §1, §2, §3, §4

[4] = system: P. aeruginosa ATCC27853; format: cell-based, Pseudomonas aeruginosa
Procedure: as §1, §2, §3, §4

[5] = system: P. aeruginosa ATCCCRM-9027; format: cell-based, Pseudomonas aeruginosa
Procedure: as §1, §2, §3, §4

[6] = system: K. pneumoniae ATCCBAA-1706; format: cell-based, Klebsiella pneumoniae
Procedure: as §1, §2, §3, §4

[7] = system: K. pneumoniae NCTC7427; format: cell-based, Klebsiella pneumoniae
Procedure: as §1, §2, §3, §4

[8] = system: K. pneumoniae NCTC8172; format: cell-based, Klebsiella pneumoniae
Procedure: as §1, §2, §3, §4

[9] = system: K. pneumoniae ATCC 4352; format: cell-based, Klebsiella pneumoniae
Procedure: as §1, §2, §3, §4

[10] = system: A. baumannii ATCCBAA-747; format: cell-based, Acinetobacter baumannii
Procedure: as §1, §2, §3, §4

[11] = system: A. baumannii NCTC7844; format: cell-based, Acinetobacter baumannii
Procedure: as §1, §2, §3, §4

[12] = system: A. baumannii NCTC13423; format: cell-based, Acinetobacter baumannii
Procedure: as §1, §2, §3, §4

[13] = system: E. coli ATCC700928; format: cell-based, Escherichia coli
Procedure: as §1, §2, §3, §4

[14] = system: P. aeruginosa ATCC10145; format: cell-based, Pseudomonas aeruginosa
Procedure: as §1, §2, §3, §4

[15] = system: P. aeruginosa ATCC 9721; format: cell-based, Pseudomonas aeruginosa
Procedure: as §1, §2, §3, §4

[16] = system: A. baumannii ATCC19606; format: cell-based, Acinetobacter baumannii
Procedure: as §1, §2, §3, §4

[17] = P. aeruginosa ATCCCRM-9027, Table 4
[18] = K. pneumoniae ATCC 4352, Table 4
[19] = Table 4A, different batches of cation-adjusted Muller-Hinton broth
[20] = P. aeruginosa AATCCRM 9027, Table 4A, different batches of cation-adjusted Muller-Hinton broth
[21] = K. pneumoniae ATCC4352, Table 4A, different batches of cation-adjusted Muller-Hinton broth
[22] = P. aeruginosa ATCC9721, Table 4A, different batches of cation-adjusted Muller-Hinton broth

Row | MIC [2, 19] [micrograms/mL] | MIC [4, 19] [micrograms/mL] | MIC [9, 21] [micrograms/mL] | MIC [16, 19] [micrograms/mL] | Structure (SMILES) | MIC ([2]; Table 4) [micrograms/mL] | MIC ([4]; Table 4) [micrograms/mL] | MIC [5, 17] [micrograms/mL] | MIC ([7]; Table 4) [micrograms/mL] | MIC ([11]; Table 4) [micrograms/mL] | MIC [5, 20] [micrograms/mL] | MIC [14, 19] [micrograms/mL] | MIC [7, 19] [micrograms/mL] | MIC [8, 19] [micrograms/mL] | MIC [10, 19] [micrograms/mL] | MIC [11, 19] [micrograms/mL] | MIC [12, 19] [micrograms/mL] | further results
1 | 8 | 0.125 | 0.5 | 2 | CC(C)C[C@@H]1NC(=O)[C@@H](Cc2ccccc2)NC(=O)[C@H](CCN)NC(=O)[C@@H](NC(=O)[C@H](CCN)NC(=O)[C@@H](NC(=O)CC[C@@H](N)C(C)C)C(C)O)CCNC(=O)[C@H](C(C)O)NC(=O)[C@H](CCN)NC(=O)[C@H](CCN)NC1=O (stereo partly drawn) [Example 29, 4-(R)-Amino-5-methylhexanoyl polymyxin B nonapeptide] (X5-[Thr(3ξ)][Dab][Dab][Dab][dF]L[Dab][Dab][Thr(3ξ)]; lactam 3-C) |  |  |  |  |  | 0.5 | 0.5 | 0.5 | >32 | 1 | 2 | 0.5 | MIC [13, 19]: 2 micrograms/mL; MIC [15, 22]: 0.25 micrograms/mL
2 | >32 | 0.5 | 4 | >32 | CC(C)C[C@@H]1NC(=O)[C@@H](Cc2ccccc2)NC(=O)[C@H](CCN)NC(=O)[C@@H](NC(=O)[C@H](CCN)NC(=O)[C@@H](NC(=O)CCO)C(C)O)CCNC(=O)[C@H](C(C)O)NC(=O)[C@H](CCN)NC(=O)[C@H](CCN)NC1=O (stereo partly drawn) [Example 33, 3-Hydroxypropanoyl polymyxin B nonapeptide] ({Propanoyl(3-OH)}-[Thr(3ξ)][Dab][Dab][Dab][dF]L[Dab][Dab][Thr(3ξ)]; lactam 3-C) |  |  |  |  |  |  |  |  |  |  |  |  | 
3 | 2 | 1 | 2 | 1 | CCCCCCCC(=O)N[C@H](C(=O)N[C@H](CO)C(=O)N[C@H]1CCNC(=O)[C@H]([C@@H](C)O)NC(=O)[C@H](CCN)NC(=O)[C@H](CCN)NC(=O)[C@H](CC(C)C)NC(=O)[C@@H](Cc2ccccc2)NC(=O)[C@H](CCN)NC1=O)[C@@H](C)O [NAB739, reference compound] (Octanoyl-T[dS][Dab][Dab][dF]L[Dab][Dab]T; lactam 3-C; N-terminus assumed) |  |  |  |  |  |  |  |  |  |  |  |  | 

Further lines, the compound ahead of its results:

Row | Structure (SMILES) | MIC [2, 19] [micrograms/mL] | MIC [4, 19] [micrograms/mL] | MIC [9, 21] [micrograms/mL] | MIC [16, 19] [micrograms/mL] | MIC ([2]; Table 4) [micrograms/mL] | MIC ([4]; Table 4) [micrograms/mL] | MIC [5, 17] [micrograms/mL] | MIC ([7]; Table 4) [micrograms/mL] | MIC ([11]; Table 4) [micrograms/mL] | MIC [5, 20] [micrograms/mL] | MIC [14, 19] [micrograms/mL] | MIC [7, 19] [micrograms/mL] | MIC [8, 19] [micrograms/mL] | MIC [10, 19] [micrograms/mL] | MIC [11, 19] [micrograms/mL] | MIC [12, 19] [micrograms/mL] | further results
4 | CC(C)C[C@@H]1NC(=O)[C@@H](Cc2ccccc2)NC(=O)[C@H](CCN)NC(=O)[C@@H](NC(=O)[C@H](CCN)NC(=O)[C@@H](NC(=O)CCCCCN)C(C)O)CCNC(=O)[C@H](C(C)O)NC(=O)[C@H](CCN)NC(=O)[C@H](CCN)NC1=O (stereo partly drawn) [Example 7, 6-Aminohexanoyl Polymyxin B Nonapeptide, Sulphate Salt] (H-[Ahx][Thr(3ξ)][Dab][Dab][Dab][dF]L[Dab][Dab][Thr(3ξ)]; lactam 4-C) |  |  |  |  | 2 | 0.5 | 0.25 | 0.25 | 16 |  |  |  |  |  |  |  | MIC ([1]; Table 4): 4 micrograms/mL; MIC ([3]; Table 4): 8 micrograms/mL; MIC ([6]; Table 4): 0.06 micrograms/mL; MIC ([8]; Table 4): >32 micrograms/mL; MIC [9, 18]: 0.5 micrograms/mL; MIC ([10]; Table 4): 8 micrograms/mL; MIC ([12]; Table 4): 0.5 micrograms/mL
5 | CC(C)C[C@@H]1NC(=O)[C@@H](Cc2ccccc2)NC(=O)[C@H](CCN)NC(=O)[C@@H](NC(=O)[C@H](CCN)NC(=O)[C@@H](NC(=O)CCCCCCCO)C(C)O)CCNC(=O)[C@H](C(C)O)NC(=O)[C@H](CCN)NC(=O)[C@H](CCN)NC1=O (stereo partly drawn) [Example 8, 8-Hydroxyoctanoyl Polymyxin B Nonapeptide, Sulphate Salt] (X6-[Thr(3ξ)][Dab][Dab][Dab][dF]L[Dab][Dab][Thr(3ξ)]; lactam 3-C) |  |  |  |  | 2 | 0.5 | 0.25 | 1 | 16 |  |  |  |  |  |  |  | MIC ([13]; Table 4): 0.5 micrograms/mL; MIC ([3]; Table 4): 2 micrograms/mL; MIC ([14]; Table 4): 2 micrograms/mL
6 | CC(C)C[C@@H]1NC(=O)[C@@H](Cc2ccccc2)NC(=O)[C@H](CCN)NC(=O)[C@@H](NC(=O)[C@H](CCN)NC(=O)[C@@H](NC(=O)C2CCNC2)C(C)O)CCNC(=O)[C@H](C(C)O)NC(=O)[C@H](CCN)NC(=O)[C@H](CCN)NC1=O (stereo partly drawn) [Example 13, [3-(R,S)-Pyrrolidine-3-carbonyl] Polymyxin B Nonapeptide, Sulphate Salt] (X3-[Thr(3ξ)][Dab][Dab][Dab][dF]L[Dab][Dab][Thr(3ξ)]; lactam 3-C) |  |  |  |  | 0.5 | 0.25 | 2 | 0.25 | 4 |  |  |  |  |  |  |  | MIC ([13]; Table 4): 0.25 micrograms/mL; MIC ([1]; Table 4): 2 micrograms/mL; MIC ([15]; P. aeruginosa ATCC 9721, Table 4): 0.125 micrograms/mL; MIC ([14]; Table 4): 0.5 micrograms/mL; MIC ([6]; Table 4): 1 micrograms/mL; MIC ([8]; Table 4): 4 micrograms/mL; MIC [9, 18]: 0.5 micrograms/mL; MIC ([10]; Table 4): 4 micrograms/mL; MIC ([16]; Table 4): 0.5 micrograms/mL; MIC ([12]; Table 4): 2 micrograms/mL
7 | CC(C)C[C@@H]1NC(=O)[C@@H](Cc2ccccc2)NC(=O)[C@H](CCN)NC(=O)[C@@H](NC(=O)[C@H](CCN)NC(=O)[C@@H](NC(=O)CCCN(C)C)C(C)O)CCNC(=O)[C@H](C(C)O)NC(=O)[C@H](CCN)NC(=O)[C@H](CCN)NC1=O (stereo partly drawn) [Example 18, 4-(N,N-dimethylamino)-butanoyl polymyxin B nonapeptide] (X4-[Thr(3ξ)][Dab][Dab][Dab][dF]L[Dab][Dab][Thr(3ξ)]; lactam 3-C) | 0.5 | 0.125 | 0.5 | 1 |  |  |  |  |  | 2 | 0.25 | 0.125 | >32 | 16 | 8 | 4 | MIC [13, 19]: 0.25 micrograms/mL; MIC [1, 19]: 4 micrograms/mL; MIC [6, 19]: 8 micrograms/mL
8 | CC(C)C[C@@H]1NC(=O)[C@@H](Cc2ccccc2)NC(=O)[C@H](CCN)NC(=O)[C@@H](NC(=O)[C@H](CCN)NC(=O)[C@@H](NC(=O)C(O)C2CCCCC2)C(C)O)CCNC(=O)[C@H](C(C)O)NC(=O)[C@H](CCN)NC(=O)[C@H](CCN)NC1=O (stereo partly drawn) [Example 34, 2-(R,S)-(2-Hydroxy-2-cyclohexyl) ethanoyl polymyxin B nonapeptide] (ξHexahydromandeloyl-[Thr(3ξ)][Dab][Dab][Dab][dF]L[Dab][Dab][Thr(3ξ)]; lactam 3-C) | 0.5 | 0.125 | 1 | 1 |  |  |  |  |  | 0.5 | 0.5 | 0.5 | >32 | 1 | 2 | 0.25 | MIC [1, 19]: 8 micrograms/mL; MIC [3, 19]: 8 micrograms/mL; MIC [15, 22]: 0.25 micrograms/mL
